What was measured:
Format in all cases: biochemical
MMP2 = target: T1, MMP2 (Homo sapiens, UniProt P08253); assay: Fluorimetric enzymatic test, MMP2; conditions: full enzyme, read-out: IC50MMP2 (full enzyme)
T1 construct: in full-length form in the case of MMP2
T1 sequence (P08253 110-660): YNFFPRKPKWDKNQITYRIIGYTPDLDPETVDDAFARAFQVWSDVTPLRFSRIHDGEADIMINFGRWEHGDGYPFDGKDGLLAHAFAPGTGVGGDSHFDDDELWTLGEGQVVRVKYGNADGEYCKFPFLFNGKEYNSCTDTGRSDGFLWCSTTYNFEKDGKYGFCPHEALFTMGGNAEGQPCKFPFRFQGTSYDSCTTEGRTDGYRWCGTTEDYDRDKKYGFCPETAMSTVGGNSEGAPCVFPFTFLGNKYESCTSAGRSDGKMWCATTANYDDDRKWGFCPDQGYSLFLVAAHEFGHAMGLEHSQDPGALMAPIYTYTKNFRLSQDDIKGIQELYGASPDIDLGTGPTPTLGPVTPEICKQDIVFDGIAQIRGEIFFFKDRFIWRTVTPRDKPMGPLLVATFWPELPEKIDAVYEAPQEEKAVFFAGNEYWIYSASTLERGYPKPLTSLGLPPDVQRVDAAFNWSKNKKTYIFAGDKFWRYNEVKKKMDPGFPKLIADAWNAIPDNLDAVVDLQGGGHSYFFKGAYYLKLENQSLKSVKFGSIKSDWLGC
Experimental: (§1) Determination of the modulatory activity on the proteolytic action of the various MMPs tested (MMP1, 2, 3, 8, 9, 12, 13 and 14) using the compounds of formula (I) according to the present invention was performed via fluorometry on a 96-well plate.
(§2) The test compounds were dissolved in DMSO to a concentration of 5 mM or 50 mM. 5-fold or 10-fold (D5 or D10) serial dilutions of each compound were prepared so as to reach the nominal range of 5 assays on which the test was performed. Each of the dilutions was added to a well containing 150 µl of activated buffer (50 mM Tris/HCl; 0.1 M NaCl; 10 mM CaCl2; 0.05% Brij 35) together with the enzyme on which the test was performed.
(§3) After incubation for one hour at 37°C of the compound with the enzyme, 50 µl of a solution of fluorogenic substrate were added to a final concentration of between 2 and 7 µM.
(§4) The fluorometric readings were then taken using a Varian Cary Eclipse spectrofluorometer regulated on the specific wavelength for the substrate used, at time T0 and after 3 hours of incubation at 37° (T3h).

MMP9 = target: T2, MMP9 (Homo sapiens, UniProt P14780); assay: Fluorimetric enzymatic test, MMP9; conditions: catalytic domain
T2 construct: in the form of the catalytic domains alone for the other MMPs
T2 sequence (P14780 107-444 limits assumed, species assumed): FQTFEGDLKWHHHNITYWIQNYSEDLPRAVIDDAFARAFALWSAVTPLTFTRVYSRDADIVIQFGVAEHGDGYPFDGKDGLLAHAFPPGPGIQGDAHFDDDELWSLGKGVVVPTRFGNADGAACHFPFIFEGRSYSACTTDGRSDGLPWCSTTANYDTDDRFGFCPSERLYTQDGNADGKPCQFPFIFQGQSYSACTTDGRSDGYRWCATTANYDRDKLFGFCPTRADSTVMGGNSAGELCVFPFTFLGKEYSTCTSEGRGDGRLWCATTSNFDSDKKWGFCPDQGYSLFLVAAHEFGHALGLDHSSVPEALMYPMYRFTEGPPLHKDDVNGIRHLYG
Experimental: as §1, §2
(§5) The concentration of the enzyme [in full-length form in the case of MMP2; in the form of the catalytic domains alone for the other MMPs] ranged between 0.5 nM and 3 nM based on the activity of the enzyme on the fluorogenic substrate used (7-methoxycoumarin-4-yl)-Pro-Leu-Gly-Leu-DPA-Ala-Arg-NH2 (MCA-1) for MMP 1, 2, 3, 8, 9, 12 and 14) and MCA-Pro-(L-cyclohexylalanine)-Gly-(L-norvaline)-His-Ala-3-(2,4-dinitrophenyl)-L-2,3-diaminopropionyl)-NH2 for MMP13) (Knight et al. 1992. FEBS Lett. 296, 263; Knauper et al. 1996, J. Biol. Chem. 271, 1544).
as §3, §4

MMP1 = target: T3, MMP1 (Homo sapiens, UniProt P03956); assay: Fluorimetric enzymatic test, MMP1; conditions: for IC50: catalytic domain, fluorimetric test
T3 construct: in the form of the catalytic domains alone for the other MMPs
T3 sequence (P03956 98-276 limits assumed): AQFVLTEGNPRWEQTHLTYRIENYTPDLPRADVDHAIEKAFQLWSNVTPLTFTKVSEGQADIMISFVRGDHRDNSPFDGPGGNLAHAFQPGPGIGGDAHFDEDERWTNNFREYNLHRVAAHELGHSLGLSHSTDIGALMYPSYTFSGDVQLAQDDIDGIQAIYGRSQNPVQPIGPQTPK
Experimental: as §1, §2, §3, §4

MMP3 = target: T4, MMP3 (Homo sapiens, UniProt P08254); assay: Fluorimetric enzymatic test, MMP3; conditions: for IC50: catalytic domain, fluorimetric test
T4 construct: in the form of the catalytic domains alone for the other MMPs
T4 sequence (P08254 100-272 limits assumed, species assumed): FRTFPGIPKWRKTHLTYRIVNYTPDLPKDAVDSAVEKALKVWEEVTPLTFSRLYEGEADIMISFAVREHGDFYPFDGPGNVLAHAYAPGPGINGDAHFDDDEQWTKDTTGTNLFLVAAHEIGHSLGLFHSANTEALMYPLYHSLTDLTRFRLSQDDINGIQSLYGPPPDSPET
Experimental: as §1, §2, §3, §4

MMP13 = target: T5, MMP13 (Homo sapiens, UniProt P45452); assay: Fluorimetric enzymatic test, MMP13; conditions: catalytic domain
T5 construct: in the form of the catalytic domains alone for the other MMPs
Experimental: as §1, §2, §3, §4

MMP8 = target: T6, MMP8 (Homo sapiens, UniProt P22894); assay: Fluorimetric enzymatic test, MMP8; conditions: catalytic domain
T6 construct: in the form of the catalytic domains alone for the other MMPs
T6 sequence (P22894 100-262 limits assumed, species assumed): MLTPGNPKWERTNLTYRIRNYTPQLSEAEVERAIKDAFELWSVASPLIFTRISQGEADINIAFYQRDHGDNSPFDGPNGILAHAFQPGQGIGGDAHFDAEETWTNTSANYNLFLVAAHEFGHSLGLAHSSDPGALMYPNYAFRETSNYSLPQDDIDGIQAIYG
Experimental: as §1, §2, §5, §3, §4

MMP12 = target: T7, MMP12 (Homo sapiens, UniProt P39900); assay: Fluorimetric enzymatic test, MMP12; conditions: catalytic domain
T7 construct: in the form of the catalytic domains alone for the other MMPs
T7 sequence (P39900 106-263 limits assumed, species assumed): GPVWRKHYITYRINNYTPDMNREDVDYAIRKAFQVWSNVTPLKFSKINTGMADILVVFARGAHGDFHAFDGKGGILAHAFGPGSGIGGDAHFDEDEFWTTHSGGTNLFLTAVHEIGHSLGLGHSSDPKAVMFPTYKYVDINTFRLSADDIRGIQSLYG
Experimental: as §1, §2, §5, §3, §4

MMP14 = target: T8, MMP14 (Homo sapiens, UniProt P50281); assay: Fluorimetric enzymatic test, MMP14; conditions: for IC50: catalytic domain, fluorimetric test
T8 construct: in the form of the catalytic domains alone for the other MMPs
Experimental: as §1, §2, §5, §3, §4

[1] = relative to the limit value of 0.3 nM for MMP2

SMILES	IC50 (MMP2)	IC50 (MMP9)	IC50 (MMP1)	IC50 (MMP3)	IC50 (MMP13)	IC50 (MMP8)	IC50 (MMP12)	IC50 (MMP14)	decrease in inhibitory power with respect to MMP1 (MMP1; [1])	decrease in inhibitory power with respect to MMP3 (MMP3; [1])	decrease in inhibitory power with respect to MMP14 (MMP14; [1])
CCCCOc1ccc(S(=O)(=O)N2CCc3c([nH]c4ccccc34)C2C(=O)O)cc1 (racemic) [Compound 4, (1 RS)-2-(4'-butoxybenzenesulfonyl)-1,2,3,4-tetrahydro-norarmano-1-carboxylic acid]	680 ± 200 nM	24000 ± 1000 nM	> 50000 nM		2000 ± 500 nM	30000 nM	4500 ± 1000 nM				
COc1ccc(Oc2ccc(S(=O)(=O)N3CCc4c([nH]c5ccccc45)C3C(=O)O)cc2)cc1 (racemic) [Compound 2, (1RS)-2-(4"-methoxy-4'-phenoxybenzenesulfonyl)-1,2,3,4-tetrahydronorarmano-1-carboxylic acid]	600 ± 100 nM	2200 ± 800 nM	> 50000 nM	> 50000 nM	15000 ± 5000 nM	1600 ± 200 nM	500 ± 100 nM	> 50000 nM			
CC(C)(C)c1ccc(S(=O)(=O)N2CCc3c([nH]c4ccccc34)C2C(=O)O)cc1 (racemic) [Compound 7, (1 RS)-2-(4'-t-butylbenzenesulfonyl)-1,2,3,4-tetrahydro-norarmano-1-carboxylic acid]	> 125000 nM										
Cc1ccc(S(=O)(=O)N2CCc3c([nH]c4ccccc34)C2C(=O)O)cc1 (racemic) [Compound 5, (1RS)-2-(4-methylbenzenesulfonyl)-1,2,3,4-tetrahydro-norarmano-1-carboxylic acid]	15000 nM	141000 nM									
O=C(O)C1c2[nH]c3ccccc3c2CCN1S(=O)(=O)c1ccc2ccccc2c1 (racemic) [Compound 6, (1RS)-2-(2-naphthylsulfonyl)-1,2,3,4-tetrahydro-norarmano-1-carboxylic acid]	2500 ± 100 nM	62000 ± 5000 nM									
CCCCOc1ccc(S(=O)(=O)N2CCc3c([nH]c4ccccc34)C2C(=O)NO)cc1 (racemic) [Compound 10, (1R,S)-2-(4'-butoxybenzenesulfonyl)-1,2,3,4-tetrahydro-norarmano-N-hydroxy-1-carboxamide]	7 ± 2.5 nM	6 ± 2 nM	20000 ± 2000 nM	4000 ± 1500 nM	2000 ± 500 nM	< 0.5 nM	< 0.5 nM	50 ± 11 nM			
COc1ccc2[nH]c3c(c2c1)CCNC3C(=O)O (stereo not shown) [6-methoxy-1,2,3,4-tetrahydronorarmano-1-carboxylic acid, reference compound]						200 nM					
O=C(O)C1c2[nH]c3ccccc3c2CCN1S(=O)(=O)c1ccc(-c2ccccc2)cc1 (racemic) [Compound 3, (1RS)-2-(4'-phenylbenzenesulfonyl)-1,2,3,4-tetrahydro-norarmano-1-carboxylic acid]	600 ± 800 nM	7500 ± 5000 nM	> 50000 nM	11000 ± 1000 nM	160 ± 50 nM	3000 ± 700 nM	300 ± 50 nM	30000 ± 2000 nM			

More lines, now with the values ahead:

IC50 (MMP2)	IC50 (MMP9)	IC50 (MMP1)	IC50 (MMP3)	IC50 (MMP13)	IC50 (MMP8)	IC50 (MMP12)	IC50 (MMP14)	decrease in inhibitory power with respect to MMP1 (MMP1; [1])	decrease in inhibitory power with respect to MMP3 (MMP3; [1])	decrease in inhibitory power with respect to MMP14 (MMP14; [1])	SMILES
< 0.3 nM	< 0.5 nM	350 ± 100 nM	30000 ± 10000 nM	< 0.5 nM	< 0.5 nM	< 0.5 nM	5 ± 1 nM				COc1ccc(Oc2ccc(S(=O)(=O)N3CCc4c([nH]c5ccccc45)C3C(=O)NO)cc2)cc1 (racemic) [Compound 12, (1 RS)-2-(4"-methoxy-4'-phenoxybenzenesulfonyl)-1,2,3,4-tetrahydronorarmano-N-hydroxy-1-carboxamide]
					< 0.5 nM	< 0.5 nM					CC1(C)SCCN(S(=O)(=O)c2ccc(Oc3ccncc3)cc2)[C@H]1C(=O)NO [prinomastat, (3S)-N-hydroxy-4-(4-(pyrid-4-yloxyl)benzenesulfonyl)-2,2-dimethyltetrahydro-2H-1,4-thiazine-3-carboxamide, reference compound]
14 ± 3 nM	15 ± 2 nM	3000 ± 1000 nM	600 nM	3 nM	4.7 ± 0.5 nM	4 ± 1.6 nM					O=C(NO)C1c2[nH]c3ccccc3c2CCN1S(=O)(=O)c1ccc(-c2ccccc2)cc1 (racemic) [Compound 11, (1R,S)-2-(4'biphenylsulfonyl)-1,2,3,4-tetrahydro-norarmano-N-hydroxy-1-carboxamide]
< 0.3 nM	< 0.5 nM	340 ± 100 nM	600 ± 200 nM	< 0.5 nM	< 0.5 nM		3.2 ± 0.1 nM				O=C(NO)C1c2[nH]c3ccccc3c2CCN1S(=O)(=O)c1ccc(Oc2ccc(F)cc2)cc1 (racemic) [Compound 14, (1RS)-2-(4"-fluoro-4'-phenoxybenzenesulfonyl)-1,2,3,4-tetrahydronorarmano-N-hydroxy-1-carboxamide]
< 0.3 nM		> 50000 nM					30 nM	about 16 000 fold	~830 fold	~100 fold	O=C(NO)C1c2[nH]c3ccccc3c2CCN1S(=O)(=O)c1ccc(Oc2ccc(Cl)cc2)cc1 (racemic) [Compound 13, (1 RS)-2-(4"-chloro-4'-phenoxybenzenesulfonyl)-1,2,3,4-tetrahydronorarmano-N-hydroxy-1-carboxamide]
28000 ± 1000 nM	4000 ± 1000 nM	> 50000 nM	> 50000 nM	> 50000 nM	21000 ± 2000 nM	2000 ± 300 nM	> 50000 nM				O=C(O)C1c2[nH]c3ccccc3c2CCN1S(=O)(=O)c1ccc(Oc2ccc(F)cc2)cc1 (racemic) [Compound 9, (1 RS)-2-(4"-fluoro-4'phenoxybenzenesulfonyl)-1,2,3,4-tetrahydronorarmano-1-carboxylic acid]
10000 ± 2000 nM	15000 ± 4000 nM	> 50000 nM	> 50000 nM	800 ± 200 nM	10000 ± 1000 nM	2000 ± 200 nM	> 50000 nM				O=C(O)C1c2[nH]c3ccccc3c2CCN1S(=O)(=O)c1ccc(Oc2ccc(Cl)cc2)cc1 (racemic) [Compound 8, (1 RS)-2-(4"-chloro-4'-phenoxybenzenesulfonyl)-1,2,3,4-tetrahydronorarmano-1-carboxylic acid]
